From PMC13421293 (Thrombosis and Haemostasis, 2025)
Values belong to the molecule of their own block, whether it stands above or below them.

How the values were obtained:
[1] = Concentrations of ticagrelor and active metabolite AR-C124910XX by LC-MS in unstable angina patients; settings: for AUC: AUC TPC, total exposure to ticagrelor, area under the ticagrelor plasma concentration curve, 0–360 min; for concentration at 15 min: 15 min post ticagrelor LD 180 mg; for concentration at 30 min: 30 min post ticagrelor LD 180 mg; for concentration at 45 min: 45 min post ticagrelor LD 180 mg; for concentration at 60 min: 60 min post ticagrelor LD 180 mg; for concentration at 120 min: 120 min post ticagrelor LD 180 mg; for concentration at 240 min: 240 min post ticagrelor LD 180 mg; for concentration at 360 min: 360 min post ticagrelor LD 180 mg
platelet reactivity = experiment: Platelet reactivity by multiple electrode aggregometry (Multiplate) in unstable angina patients
canine platelet = test system: canine platelet; set-up: method as in PMID 5554584; settings: commonly used concentrations; cited from earlier work
[2] = 0–360 min post ticagrelor LD 180 mg
[3] = human, plasma, oral, 180 mg, Ticagrelor plasma concentration, Mean ± SD
[4] = human, plasma, oral, 180 mg, Ticagrelor plasma concentration, Median (Q1–Q3)
[5] = 15 min post ticagrelor LD 180 mg, MEA
[6] = 30 min post ticagrelor LD 180 mg, MEA
[7] = 45 min post ticagrelor LD 180 mg, MEA
[8] = 60 min post ticagrelor LD 180 mg, MEA
[9] = 120 min post ticagrelor LD 180 mg, MEA
[10] = 180 min post ticagrelor LD 180 mg, MEA
[11] = 240 min post ticagrelor LD 180 mg, MEA
[12] = time to reach low platelet reactivity after ticagrelor LD, MEA

Ticagrelor maximum concentration, Mean ± SD [1, 2]: 699 ± 257 ng/mL | Ticagrelor maximum concentration, Median (Q1–Q3) [1, 2]: 680 (514–800) ng/mL | Ticagrelor plasma concentration, Mean ± SD ([1]; baseline): 0 ng/mL | Ticagrelor plasma concentration, Median (Q1–Q3) ([1]; baseline): 0 ng/mL | AUC ([1]; human, plasma, oral, 180 mg, Mean ± SD): 2310 ng·h/mL | AUC ([1]; human, plasma, oral, 180 mg, Median (Q1–Q3)): 2070 ng·h/mL | concentration at 15 min [1, 3]: 20 ± 29 ng/mL | concentration at 30 min [1, 3]: 171 ± 237 ng/mL | concentration at 45 min [1, 3]: 329 ± 353 ng/mL | concentration at 60 min [1, 3]: 464 ± 379 ng/mL | concentration at 120 min [1, 3]: 533 ± 243 ng/mL | concentration at 240 min [1, 3]: 404 ± 136 ng/mL | concentration at 360 min [1, 3]: 291 ± 94 ng/mL | concentration at 15 min [1, 4]: 13 ng/mL | concentration at 30 min [1, 4]: 69 ng/mL | concentration at 45 min [1, 4]: 210 ng/mL | concentration at 60 min [1, 4]: 316 ng/mL | concentration at 120 min [1, 4]: 569 ng/mL | concentration at 180 min ([1]; human, plasma, oral, 180 mg, Ticagrelor plasma concentration, Median (Q1–Q3), 180 min post ticagrelor LD 180 mg): 453 ng/mL | concentration at 240 min [1, 4]: 402 ng/mL | concentration at 360 min [1, 4]: 290 ng/mL
Structure (SMILES): CCCSc1nc(N[C@@H]2C[C@H]2c2ccc(F)c(F)c2)c2nnn([C@@H]3C[C@H](OCCO)[C@@H](O)[C@H]3O)c2n1 [Ticagrelor, ticagrelor]
AUC 15 (platelet reactivity), Mean ± SD (platelet reactivity; [5]): 66.08 ± 26.54 U | AUC 15 (platelet reactivity), Median (Q1–Q3) (platelet reactivity; [5]): 66 (48–87) U | AUC 30 (platelet reactivity), Mean ± SD (platelet reactivity; [6]): 47.76 ± 27.79 U | AUC 30 (platelet reactivity), Median (Q1–Q3) (platelet reactivity; [6]): 36 (27–66) U | AUC 45 (platelet reactivity), Mean ± SD (platelet reactivity; [7]): 34.56 ± 22.95 U | AUC 45 (platelet reactivity), Median (Q1–Q3) (platelet reactivity; [7]): 28 (17–36) U | AUC 60 (platelet reactivity), Mean ± SD (platelet reactivity; [8]): 26.64 ± 17.75 U | AUC 60 (platelet reactivity), Median (Q1–Q3) (platelet reactivity; [8]): 26 (16–32) U | AUC 120 (platelet reactivity), Mean ± SD (platelet reactivity; [9]): 21.6 ± 13.37 U | AUC 120 (platelet reactivity), Median (Q1–Q3) (platelet reactivity; [9]): 21 (17–25) U | AUC 180 (platelet reactivity), Mean ± SD (platelet reactivity; [10]): 21.32 ± 12.03 U | AUC 180 (platelet reactivity), Median (Q1–Q3) (platelet reactivity; [10]): 22 (13–28) U | AUC 240 (platelet reactivity), Mean ± SD (platelet reactivity; [11]): 23.76 ± 16.86 U | AUC 240 (platelet reactivity), Median (Q1–Q3) (platelet reactivity; [11]): 22 (17–26) U | AUC 360 (platelet reactivity), Median (Q1–Q3) (platelet reactivity; 360 min post ticagrelor LD 180 mg, MEA): 19 (12–25) U | AUC 0 (platelet reactivity), Median (Q1–Q3) (platelet reactivity; baseline, MEA, UA patients): 73 (54–95) U | AUC 0 (platelet reactivity, area under the aggregation curve), Mean ± SD (platelet reactivity; baseline, MEA, UA patients): 76.36 ± 21.82 U | Time to AUC < 46 U, Mean ± SD (platelet reactivity; [12]): 43.8 ± 46.42 | Time to AUC < 46 U, Median (Q1–Q3) (platelet reactivity; [12]): 30 (30–45)

Structure (SMILES): CCOCC [diethyl ether]
ADP-induced canine platelet aggregation (canine platelet): significant reduction

Structure (SMILES): FC(F)(F)C(Cl)Br (stereo not drawn) [halothane]
ADP-induced canine platelet aggregation (canine platelet): significant reduction

Structure (SMILES): COC(F)(F)C(Cl)Cl [methoxyflurane]
ADP-induced canine platelet aggregation (canine platelet): significant reduction | effect on platelet reactivity (platelet reactivity; methoxyflurane added to ticagrelor LD vs ticagrelor alone, MEA AUC): inhibitory effect

Structure (SMILES): [N-]=[N+]=O [nitrous oxide]
ADP-induced canine platelet aggregation (canine platelet): significant reduction
